Consider 8 compounds from patent publication US5304474A, “Hydrophobic peptide esters and amides” (Board of Regents, The University of Texas System, priority 1991, dated 1994).

Each structure is given as a SMILES string. Like-named read-outs stand apart in the source and are kept apart here. Peptide text beside a SMILES is read from it. Bounds are passed on as bounds.

Data set [1] relates to [^3 H]Leu-Leu-OMe uptake by PBL (facilitated transport). The experiment in a line: Competitive inhibition of [3H]Leu-Leu-OMe uptake. The settings on record: for inhibition at 250 µM: Homo sapiens, unlabeled compound 250 microM, [3H]Leu-Leu-OMe 10 microM (Table 5). It counts as cell-based, human. As for the experimental part: (§1) Human peripheral blood lymphocytes (PBL) were incubated in the presence of [^3 H]labeled Leu-Leu-OMe at 22° C. for varying lengths of time. The incubation mixture was then centrifuged through silicone oil to separate the cells from any unbound or non-internalized [^3 HLeu-Leu-OMe. […] At 37° C., levels of [^3 H]Leu-Leu-OMe accumulation by PBL were increased above those seen at 22° C. (see Table 4).

Data set [2] deals with T1, dipeptidyl peptidase I (DPPI) (Bos taurus, UniProt Q3ZCJ8). Nature of the data set: Dipeptidyl peptidase I catalyzed lysis of human RBC. The settings on record: FIG. 12, FIG. 13. It counts as cell-based, bovine. The protocol: (§2) The following experiments were carried out to determine whether DPPI could generate a lytic product from Leu-Leu-OMe. In the experiment detailed in FIG. 12, ^51 Cr-labeled human erythrocytes (RBC) were incubated with varying concentrations of Leu-Leu-OMe alone or in the presence of purified bovine DPPI.
In the experiments detailed in FIG. 13, ^51 Cr-labeled RBC's were exposed to various dipeptide esters or amides in the presence or absence of purified DPPI. […] The first observation is probably related to the inability of this enzyme to catalyze transpeptidation of peptide esters containing D-stereoisomers of amino acids. The latter observations are likely to be related to the fact that polymers of Ser-Leu or Leu-Tyr are not hydrophobic and therefore unlikely to enter and disrupt cell membranes.

The test system of data set [3] is natural killer cells (NK). Nature of the data set: NK function: lysis of K562 target cells (51Cr release) after preincubation of lymphocytes with compound. Particulars: for NK toxicity / effect on NK function, in words: lymphocytes exposed 15 minutes at room temperature (FIG. 4, FIG. 5).
Protocol: PBM were separated from heparinized venous blood of healthy donors by centrifugation over sodium diatrizoate-Ficoll gradients (Isolymph, Gallard-Schlesinger Chemical Mfg. Corp., Carle Place, N.Y.).
All cell exposures to the amino acids, dipeptides or their methyl esters were carried out by suspending cells in Dulbecco's phosphate buffered saline (PBS) and incubating them at room temperature with the reagent at the indicated concentration and time interval.
Percent of control cytotoxicity was calculated using the formula: [formula]
The test system of data set [4] is production of a TCA insoluble product from [^3 H]Leu-Leu-OMe. It counts as cell-based, human. An excerpt:
Iodoacetamide nonspecifically binds covalently to free sulfhydryl groups and thereby inhibits thiol protease function as well as other enzymatic reactions dependent on the presence of reduced sulfhydryl groups.

The next data set has as its system human erythrocytes (RBC). Nature of the data set: 51Cr release from RBC incubated with peptide ester alone. In kind it is cell-based. Particulars: for ^51 Cr Release from RBC: Nil 410 + 12. The protocol: as §2
The test system of data set [5] is peripheral blood lymphocytes (PBL). The experiment in a line: [3H]Leu-Leu-OMe uptake/binding by lymphocytes. In kind it is in vitro ADME, human. As for the experimental part: as §1
Data set [6] deals with T1, dipeptidyl peptidase I (DPPI). Nature of the data set: Polymerization of [3H]Leu-Leu-OMe to a TCA insoluble product by purified enzyme. It counts as biochemical, bovine. From the text:
When R1 and R2 are amino acids with nonpolar side groups, such products are very hydrophobic and water insoluble (J. Biol. Chem. 1952; 195:645-656). […] Of note, much lower extracellular concentrations of Leu-Leu-OMe are required for production of a similar product within NK and T8 cells.

Data set [7] in a line: Conversion of [3H]Leu-Leu-OMe in cells to a product which precipitates in 10% TCA. In kind it is in vitro ADME, human. Particulars: for Fractional Conversion of [^3 H]Leu--Leu--OMe to a product which Precipitates in 10% TCA: Intact NK, T8 Cells. The protocol: Additional experiments, detailed in Table 7, were performed to assess the metabolic fate of [^3 H]Leu-Leu-OMe within PBL. Cells were incubated with [^3 H]Leu-Leu-OMe for 15 minutes at 22° C. to permit uptake of this compound and then were washed. If the cells were immediately lysed and 10% trichloroacetic acid (TCA) was added to precipitate higher molecular weight cell proteins and nucleic acids, essentially all of the [^3 H]label remained in the supernatant as anticipated for a small molecular weight peptide which is soluble in 10% TCA.
In experiment 1 of Table 8 non-adherent peripheral blood lymphocytes were incubated in the presence or absence of 250 micro-M unlabeled Leu-Leu-OMe for 15 minutes and then cultured overnight at 37° C. This form of exposure to Leu-Leu-OMe has been shown previously herein to result inloss of NK cells and a substantial fraction of CD8(+) T cells, whereas the majority of CD4(+) lymphocytes are resistant to any toxic effects of this agent and remain viable and functionally intact. […] However, when production of a product which precipitated in 10% TCA was assessed following a second incubation at 37° C. for 30 minutes, it was noted that the LLMe resistant subset of lymphocytes produced almost no detectable amounts of this as yet unidentified product.
In experiment 2 (Table 8), PBL were divided into a CD4(+) T cell (T4 cell)-enriched population and a T8, NK-enriched population by staining with anti-CD4 or anti-CD8 monoclonal antibodies and panning on goat anti-mouse coated petri dishes to enrich for the unstained lymphocyte subsets as previously described (see prior Examples and J. Immunol. 1986 136:1038-1048). Again, it was noted that T4 cells took up less [^3 H]Leu-Leu-OMe during an initial incubation than did a population of lymphocytes enriched for T8 and NK cells. However, the differences in production of a product which precipitated in 10% TCA were even more dramatic. Whereas initial [^3 H]Leu-Leu-Me uptake by T4 cells was approximately 53% of that seen with an equal number of T8 and NK cells, the amount of [^3 H]label appearing in a 10% TCA precipitate of the T4 cell sonicate after a subsequent 30 minute incubation was less than 7% of the quantity noted in the TCA precipitable of T8 and NK cell sonicates. Furthermore, little or no TCA insoluble product was produced by other non-lymphoid cell types such as dermal fibroblasts or a renal cell carcinoma line, Cur, which have been previously noted to be resistant to the toxicity of Leu-Leu-OMe (J. Immunol 1986: 136:1038-1048). […] As proteinase K digestion removed this product, it was likely to be a larger peptide or protein into which [^3 H]Leu had been incorporated.

[8] abbreviates: Expt. 1, Cycloheximide 100 micro-g/ml, PMSF 1 micro-M, Iodoacetamide 0.5 micro-M, Nil 2,160 + 193.
Where [9] appears, read: Expt. 1, LLMe Resistant Lymphocytes.
Where [10] appears, read: Expt. 1, Non-adherent Lymphocytes.
[11] abbreviates: second 37° C. incubation 15 minutes.
Where [12] appears, read: second 37° C. incubation 30 minutes.
Where [13] appears, read: second 37° C. incubation 60 minutes.

T1 sequence (Q3ZCJ8 231-394 limits assumed): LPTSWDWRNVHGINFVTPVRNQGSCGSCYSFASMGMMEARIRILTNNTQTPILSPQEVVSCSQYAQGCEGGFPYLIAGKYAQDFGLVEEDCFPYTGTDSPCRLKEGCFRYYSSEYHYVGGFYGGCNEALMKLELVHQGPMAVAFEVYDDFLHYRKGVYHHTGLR
T1 sequence (Q3ZCJ8 25-134 limits assumed): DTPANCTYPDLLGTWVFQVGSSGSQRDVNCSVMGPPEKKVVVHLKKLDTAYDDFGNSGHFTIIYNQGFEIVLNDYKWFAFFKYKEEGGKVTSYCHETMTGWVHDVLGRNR
T1 sequence (Q3ZCJ8 395-463 limits assumed): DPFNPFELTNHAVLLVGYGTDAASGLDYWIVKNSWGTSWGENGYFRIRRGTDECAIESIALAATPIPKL

With `COC(=O)[C@@H](CC(C)C)NC(=O)[C@H](N)CC(C)C` [D-Leu-D-Leu-OMe], in data set [1], the “competitive inhibition of [3H]Leu-Leu-OMe uptake, in words” value (“competitive inhibition” below) was “do not competitively inhibit PBL uptake of L-Leu-L-Leu-OMe” and the inhibition at 250 µM amounted to 7%. Moreover, in data set [2], the “RBC lysis in the presence of purified DPPI, in words” value (from here on “RBC lysis in the presence”) is “unable to produce a membrane active metabolite”. In data set [3] (added with Leu-Leu-OMe), the “effect on Leu-Leu-OMe mediated NK toxicity” value is “had no effect on Leu-Leu-OMe mediated NK toxicity”. For the same compound, in data set [3], the “NK toxicity / effect on NK function, in words” value (“NK toxicity / effect” below) is on record as “had no inhibitory effect”.

In the case of `NC(=O)CI` [Iodoacetamide, iodoacetamide], in data set [4], the “[^3 H]Leu--Leu--OMe Incorporation, 10% TCA Precipitate” value is 243 + 16 cpm and the “[^3 H]Leu--Leu--OMe Incorporation, Initial” value was 6,316 + 188 cpm. Also, in data set [4] (setting [8]), the “[^3 H]Leu--Leu--OMe Incorporation, 10% TCA Precipitate” value is recorded as 140 + 5 cpm.

Turning to `COC(=O)[C@H](CC(C)C)NC(=O)[C@H](CC(C)C)NC(=O)[C@H](CC(C)C)NC(=O)[C@H](CC(C)C)NC(=O)[C@H](CC(C)C)NC(=O)[C@@H](N)CC(C)C` [LLLLLLOMe] (H-LLLLLL-OMe), the “^51 Cr Release from RBC” value is on record as 698 + 137 in the data set with human erythrocytes (RBC) (20 micro-M), 6,129 + 400 in the data set on human erythrocytes (RBC) (100 micro-M) and 3,531 + 101 in the data set on human erythrocytes (RBC) (500 micro-M). In addition, the “damage to RBC by compound alone, in words” value with human erythrocytes (RBC) (no DPPI) is listed as “Disruption of erythrocyte membranes was observed”.

Regarding `COC(=O)[C@H](CC(C)C)NC(=O)[C@H](CC(C)C)NC(=O)[C@H](CC(C)C)NC(=O)[C@@H](N)CC(C)C` [LLLLOMe] (H-LLLL-OMe), the “^51 Cr Release from RBC” value is on record as 425 + 24 in the data set with human erythrocytes (RBC) (100 micro-M) and 457 + 41 in the data set on human erythrocytes (RBC) (500 micro-M).

Take `CC(C)C[C@H](NC(=O)[C@@H](N)CC(C)C)C(=O)O` [Leu-Leu, L-leucyl L-leucine, reference compound]: in data set [1], the “competitive inhibition” value is given as “competitively inhibited” and the inhibition at 250 µM was found to be 44%. Moreover, the “RBC lysis in the presence” value in data set [2] is recorded as “not polymerized by DPPI to form a product capable of lysing RBC's”. In addition, in data set [3], the “NK toxicity / effect” value is “had no inhibitory effect”.

Take `COC(=O)[C@@H](N)CC(C)C` [Leu-OMe, L-leucine methyl ester, reference compound]: in data set [1], the “competitive inhibition” value is recorded as “do not competitively inhibit PBL uptake of L-Leu-L-Leu-OMe” and the inhibition at 250 µM was -10%. Further, the “RBC lysis in the presence” value in data set [2] was “not polymerized by DPPI to form a product capable of lysing RBC's”. Further, the NK activity entry in data set [3] (PBM, 5 mM (FIG. 1)) is on record as “ablated all NK activity”. Besides, the “NK toxicity / effect” value in data set [3] is given as “had no irreversible effect on NK function”.

On to `O=S(=O)(F)Cc1ccccc1` [PMSF, phenylmethylsulfonylfluoride], for which the “[^3 H]Leu--Leu--OMe Incorporation, 10% TCA Precipitate” value in data set [4] (setting [8]) was 2,078 + 213 cpm.

Consider `COC(=O)[C@H](CC(C)C)NC(=O)[C@@H](N)CC(C)C` [[^3 H]Leu--Leu--OMe], for which the “[^3 H]Leu--Leu--OMe Uptake/Binding” value in data set [5] (Expt. 1, 0° C.) turned out to be 0.05 micro-moles/10^6 cells; in data set [5] (Expt. 1, 22° C.), 0.77 micro-moles/10^6 cells; in data set [5] (Expt. 2, 4° C.), 0.02 micro-moles/10^6 cells; in data set [5] (Expt. 2, 22° C.) it was 0.31 micro-moles/10^6 cells; in data set [5] (Expt. 2, 37° C.), 0.52 micro-moles/10^6 cells. Moreover, the “Fractional Conversion of [^3 H]Leu--Leu--OMe to a product which Precipitates in 10% TCA” value in data set [6] (1 micro-M) is reported as < 0.01%; in data set [6] (10 micro-M), 0.03%; in data set [6] (100 micro-M), 0.08%; in data set [6] (1000 micro-M) it was 20.0%; in data set [7] (1 micro-M), < 0.1%; in data set [7] (10 micro-M) it was < 0.2%. Moreover, the “Fractional Conversion of [^3 H]Leu--Leu--OMe to a product which Precipitates in 10% TCA” value is recorded as 11.1% in data set [7] (100 micro-M) and 23.2% in data set [7] (250 micro-M). Further, the “Incorporation, Initial” value is given as 7,184 cpm in data set [7] (setting [9]); 27,870 cpm in data set [7] (setting [10]); 63,229 cpm in data set [7] (Expt. 2, Fibroblasts); 35,855 cpm in data set [7] (Expt. 2, Renal Cell Carcinoma); 12,200 cpm in data set [7] (Expt. 2, T4 Cells); 22,753 cpm in data set [7] (Expt. 2, T8, NK Cells). Moreover, the “Incorporation, TCA Precipitate” value in data set [7] (setting [9]) is recorded as 50 cpm; in data set [7] (Expt. 1, Non-adherent Lymphocytes, 30 minutes 37° C.), 2,341 cpm; in data set [7] (Expt. 2, Fibroblasts) it was 293 cpm; in data set [7] (Expt. 2, Renal Cell Carcinoma), 267 cpm; in data set [7] (Expt. 2, T4 Cells), 207 cpm; in data set [7] (Expt. 2, T8, NK Cells), 3,208 cpm. Moreover, the “TCA Precipitate (% of initial)” value in data set [7] (setting [9]) was determined as 0.7%; in data set [7] (setting [10]), 8.4%; in data set [7] (Expt. 2, Fibroblasts), 0.5%; in data set [7] (Expt. 2, Renal Cell Carcinoma), 0.7%; in data set [7] (Expt. 2, T4 Cells) it was 1.7%; in data set [7] (Expt. 2, T8, NK Cells), 14.1%. The “initial uptake by T4 cells relative to equal number of T8 and NK cells” value in data set [7] (Expt. 2 of Table 8) is on record as “approximately 53%”. The “[^3 H]Leu--Leu--OMe Total” value in data set [7] (PBL, 15 minutes 22° C., second 37° C. incubation 0) worked out at 61.4 cpm × 10^-3; in data set [7] (setting [11]), 24.9 cpm × 10^-3; in data set [7] (setting [12]), 20.6 cpm × 10^-3; in data set [7] (setting [13]), 12.7 cpm × 10^-3. The “label in TCA precipitate of T4 cell sonicate relative to T8 and NK cell sonicates” value in data set [7] (after 30 minute incubation) is given as “less than 7%”. Further, the “[^3 H]Leu--Leu--OMe TCA Prec.” value worked out at 0.5 cpm × 10^-3 in data set [7] (second 37° C. incubation 0), 6.8 cpm × 10^-3 in data set [7] (setting [11]), 12.7 cpm × 10^-3 in data set [7] (setting [12]) and 10.7 cpm × 10^-3 in data set [7] (setting [13]).
